Literature values in patent US20210268011A1, “AMPK ACTIVATING AGENT” (ORYZA OIL & FAT CHEMICAL CO., LTD., priority 2018, published 2021).

System: AMPK
Details: recent research, Non-patent Document 4; cited from earlier work

CN(C)C(=N)N=C(N)N [metformin]
AMPK activation: activated
